Measurements reported in patent US11491134B2, “Composition for inhibiting skin cell proliferation and/or anti-inflammation method for inhibiting skin cell proliferation and/or anti-inflammation and method for treating skin diseases and/or inflammatory diseases” (Industrial Technology Research Institute, priority 2019, dated 2022).

Tested on: keratinocytes, HaCaT cells
Assay: Inhibition rate on keratinocyte (HaCaT cell) proliferation, MTT
Type: cell-based
Conditions: Homo sapiens
Method: Dimethyl sulfoxide (DMSO) was used as a solvent to prepare apigenin test samples with different concentrations and luteolin test samples with different concentrations. 9 batches of experiments were performed, which respectively were Batch 1 to Batch 9. There were 6 independent experiments in each batch of experiments. In each independent experiment, inhibition rate of an apigenin test sample with a specific concentration on keratinocyte proliferation and inhibition rate of a luteolin test sample with a specific concentration on keratinocyte proliferation were determined, and inhibition rate of a combination of an apigenin test sample with the said specific concentration and a luteolin test sample with the said specific concentration on keratinocyte proliferation was determined. Between the independent experiments, concentrations of apigenin test samples used were different, and concentrations of luteolin test samples used were also different, however, mole ratios or weight ratios of apigenin test samples to luteolin test samples were the same. Moreover, between the batches of experiments, mole ratios or weight ratios of apigenin test samples to luteolin test samples were different. 5×10^3 keratinocytes, HaCaT cells, were inoculated in a 96-well culture plate and then placed in a 37° C. and 5% CO2 incubator for culturing overnight, and cell numbers at this time point (T0) was used as a benchmark for cell proliferation. After overnight culture, a test sample was added to the cells in the culture plate (refer to Table 1, and the cells of the control group were only treated with dimethyl sulfoxide) for co-culturing for 48 hours (T48). After that, the supernatant in the culture plate was removed. After the supernatant was removed, 50 μL MTT solution (0.5 mg/mL; Life Technologies Cat. No. M-6494) was added to cells and then the culture plate was placed in a 37° C. and 5% CO2 incubator for culturing for 1.5 hours. After that, 150 μL DMSO (J. T. Baker, Cat. No. 9224-03) was added to the cells in the culture plate and shaken for 5 minutes. Thereafter, the absorbance of each well of the culture plate was determined at 570 nm by a continuous wavelength microplate reader, and inhibition rate on cell proliferation was calculated through the following formula: Inhibition rate on cell proliferation=T48 Control group570 nm−T48 Experimental group570 nm)/(T48 Control group570 nm−T0 Control group570 nm) In this experiment, the synergistic effects of apigenin and luteolin were evaluated by CalcuSyn software (BIOSOFT). CalcuSyn software is an analysis software which is commonly used to analyze the drug dosage effect of single drug and multiple drugs at present. CalcuSyn software can be used to analyze drug complex interactions and automatically quantify various phenomena such as synergism and inhibition. CalcuSyn software can process the data of individual drugs and combination drugs with constant-ratio or on-constant-ratio, and can evaluate the interaction of combination drugs by the combination index (CI) (Chou and Talalay, Adv. Enzyme Regul. 22:27-55 (1984) calculated by CalcuSyn software. Calculation formula for the combination index is shown in the following: Combination index=C1/IC1+C2/IC2 C1 and C2 are the respective concentrations of the first compound and the second compound at which the activity of achieving a specific physiological or medical purpose is 50% (or 75%, or 90%) when the first compound and the second compound are analyzed in combination; IC1 and IC2 are the respective concentrations at which the activity of achieving a specific physiological or medical purpose of the first compound and the second compound is 50% (or 75%, or 90%) when the first compound and the second compound are independently analyzed. […]

O=c1cc(-c2ccc(O)c(O)c2)oc2cc(O)cc(O)c12 [Luteolin, luteolin]
inhibition at 3.125 µM (Batch 1, luteolin 3.125 μM/0.89 μg/mL): 0%
inhibition at 6.25 µM (Batch 1, luteolin 6.25 μM/1.79 μg/mL): 0.9%
inhibition at 12.5 µM (Batch 1, luteolin 12.5 μM/3.58 μg/mL): 17.2%
inhibition at 25 µM (Batch 1, luteolin 25 μM/7.16 μg/mL): 44.6%
inhibition at 50 µM (Batch 1, luteolin 50 μM/14.31 μg/mL): 67.7%
inhibition at 100 µM (Batch 1, luteolin 100 μM/28.62 μg/mL): 101%
inhibition at 1.5625 µM (Batch 2, luteolin 1.5625 μM/0.45 μg/mL): 11.3%
inhibition at 3.125 µM (Batch 2, luteolin 3.125 μM/0.89 μg/mL): 5.1%
inhibition at 6.25 µM (Batch 2, luteolin 6.25 μM/1.79 μg/mL): 19.6%
inhibition at 12.5 µM (Batch 2, luteolin 12.5 μM/3.58 μg/mL): 35%
inhibition at 25 µM (Batch 2, luteolin 25 μM/7.16 μg/mL): 53.8%
inhibition at 50 µM (Batch 2, luteolin 50 μM/14.31 μg/mL): 75.2%
inhibition at 0.625 µM (Batch 3, luteolin 0.625 μM/0.18 μg/mL): 1.9%
inhibition at 1.25 µM (Batch 3, luteolin 1.25 μM/0.36 μg/mL): 2.8%
inhibition at 2.5 µM (Batch 3, luteolin 2.5 μM/0.72 μg/mL): 4.3%
inhibition at 5 µM (Batch 3, luteolin 5 μM/1.43 μg/mL): 13.7%
inhibition at 10 µM (Batch 3, luteolin 10 μM/2.86 μg/mL): 31.9%
inhibition at 20 µM (Batch 3, luteolin 20 μM/5.72 μg/mL): 55.6%
inhibition at 0.3125 µM (Batch 4, luteolin 0.3125 μM/0.09 μg/mL): 0.4%
inhibition at 0.625 µM (Batch 4, luteolin 0.625 μM/0.18 μg/mL): 0%
inhibition at 1.25 µM (Batch 4, luteolin 1.25 μM/0.36 μg/mL): 0%
inhibition at 2.5 µM (Batch 4, luteolin 2.5 μM/0.72 μg/mL): 0%
inhibition at 5 µM (Batch 4, luteolin 5 μM/1.43 μg/mL): 0.8%
inhibition at 10 µM (Batch 4, luteolin 10 μM/2.86 μg/mL): 6.6%
inhibition at 0.15625 µM (Batch 5, luteolin 0.15625 μM/0.04 μg/mL): 11.4%
inhibition at 0.3125 µM (Batch 5, luteolin 0.3125 μM/0.09 μg/mL): 14%
inhibition at 0.625 µM (Batch 5, luteolin 0.625 μM/0.18 μg/mL): 4.3%
inhibition at 1.25 µM (Batch 5, luteolin 1.25 μM/0.36 μg/mL): 0%
inhibition at 2.5 µM (Batch 5, luteolin 2.5 μM/0.72 μg/mL): 0%
inhibition at 5 µM (Batch 5, luteolin 5 μM/1.43 μg/mL): 3.3%
inhibition at 3.125 µM (Batch 6, luteolin 3.125 μM/0.89 μg/mL): 0%
inhibition at 6.25 µM (Batch 6, luteolin 6.25 μM/1.79 μg/mL): 0.6%
inhibition at 12.5 µM (Batch 6, luteolin 12.5 μM/3.58 μg/mL): 18.5%
inhibition at 25 µM (Batch 6, luteolin 25 μM/7.16 μg/mL): 42.2%
inhibition at 50 µM (Batch 6, luteolin 50 μM/14.31 μg/mL): 57.8%
inhibition at 100 µM (Batch 6, luteolin 100 μM/28.62 μg/mL): 94.2%
inhibition at 3.125 µM (Batch 7, luteolin 3.125 μM/0.89 μg/mL): 8.6%
inhibition at 6.25 µM (Batch 7, luteolin 6.25 μM/1.79 μg/mL): 19%
inhibition at 12.5 µM (Batch 7, luteolin 12.5 μM/3.58 μg/mL): 37.5%
inhibition at 25 µM (Batch 7, luteolin 25 μM/7.16 μg/mL): 55.1%
inhibition at 50 µM (Batch 7, luteolin 50 μM/14.31 μg/mL): 70.1%
inhibition at 100 µM (Batch 7, luteolin 100 μM/28.62 μg/mL): 108%
inhibition at 3.125 µM (Batch 8, luteolin 3.125 μM/0.89 μg/mL): 5.2%
inhibition at 6.25 µM (Batch 8, luteolin 6.25 μM/1.79 μg/mL): 13.8%
inhibition at 12.5 µM (Batch 8, luteolin 12.5 μM/3.58 μg/mL): 33.5%
inhibition at 25 µM (Batch 8, luteolin 25 μM/7.16 μg/mL): 50.7%
inhibition at 50 µM (Batch 8, luteolin 50 μM/14.31 μg/mL): 63.6%
inhibition at 100 µM (Batch 8, luteolin 100 μM/28.62 μg/mL): 100%
inhibition at 3.125 µM (Batch 9, luteolin 3.125 μM/0.89 μg/mL): 4.2%
inhibition at 6.25 µM (Batch 9, luteolin 6.25 μM/1.79 μg/mL): 11%
inhibition at 12.5 µM (Batch 9, luteolin 12.5 μM/3.58 μg/mL): 30.1%
inhibition at 25 µM (Batch 9, luteolin 25 μM/7.16 μg/mL): 47.8%
inhibition at 50 µM (Batch 9, luteolin 50 μM/14.31 μg/mL): 62%
inhibition at 100 µM (Batch 9, luteolin 100 μM/28.62 μg/mL): 104%
